Measurements published in US20180200257A1, “METHODS FOR THE TREATMENT OF INFLAMMATORY DISORDERS” (Galapagos NV, priority 2015, published 2018).

Tested on: subjects with moderately to severely active RA who have an inadequate response to methotrexate (MTX)
Assay: Study 2 (monotherapy) - Creatinine levels
Type: in vivo, human
Excerpt: Randomized, double-blind, placebo-controlled, multicenter, phase IIb dose finding study of Compound 1 (dosed as a [Compound 1:HCl:3H2O]) administered for 24 weeks as monotherapy to subjects with moderately to severely active rheumatoid arthritis who have an inadequate response to methotrexate alone
Double-blind, placebo-controlled, monotherapy study in subjects with moderately to severely active RA who have an inadequate response to methotrexate (MTX) (oral or parenteral).
280 subjects randomized to one of 3 doses of Compound 1 (dosed as a [Compound 1:HCl:3H2O]) or to placebo, given once daily (q.d.).
Twelve weeks of treatment with Compound 1 (dosed as a [Compound 1:HCl:3H2O]) at 50 mg, 100 mg, or 200 mg q.d.; or placebo. At Week 12, all subjects on placebo and the subjects on the 50 mg dose who have not achieved 20% improvement in swollen joint count (SJC66) and tender joint count (TJC68) will be assigned to 100 mg q.d. in a blinded fashion and will continue treatment until Week 24. Subjects in the other groups will maintain their randomized treatment until Week 24.
Creatinine levels determination is available at Quest Diagnostics, Clinical Trials, Quest House, 125-135 Staines Road, Hounslow, Middlesex, TW3 3JB, United Kingdom under Catalogue n# 82565. For Study 3, the data are obtained at BARC Europe, 3B,Industrie Park, Zwijnaarde, B-9052 Ghent, Belgium.
The Enzymatic method is based on the determination of sarcosine after conversion of creatinine with the aid of creatininase, creatinase, and sarcosine oxidase. The liberated hydrogen peroxide reacts with 4-aminophenazone and HTIB to form a quinone imine chromogen. The reaction is catalyzed by peroxidase. The color intensity is directly proportional to concentration of creatinine present and can be measured photometrically.
Subjects in the other groups maintained their randomized treatment until Week 24.

[1] = 100 mg q.d. (N = 70), 24 weeks results, week 12
[2] = 100 mg q.d. (N = 70), 24 weeks results, week 16
[3] = 100 mg q.d. (N = 70), 24 weeks results, week 20
[4] = 100 mg q.d. (N = 70), 24 weeks results, week 24
[5] = 200 mg q.d. (N = 69), 24 weeks results, week 0
[6] = 200 mg q.d. (N = 69), 24 weeks results, week 1
[7] = 200 mg q.d. (N = 69), 24 weeks results, week 2
[8] = 200 mg q.d. (N = 69), 24 weeks results, week 4
[9] = 200 mg q.d. (N = 69), 24 weeks results, week 8
[10] = 200 mg q.d. (N = 69), 24 weeks results, week 12
[11] = 200 mg q.d. (N = 69), 24 weeks results, week 16
[12] = 200 mg q.d. (N = 69), 24 weeks results, week 20
[13] = 200 mg q.d. (N = 69), 24 weeks results, week 24
[14] = placebo switching to 100 mg q.d. at week 12 (N = 72), week 16
[15] = placebo switching to 100 mg q.d. at week 12 (N = 72), week 20
[16] = placebo switching to 100 mg q.d. at week 12 (N = 72), week 24

SMILES: O=C(Nc1nc2cccc(-c3ccc(CN4CCS(=O)(=O)CC4)cc3)n2n1)C1CC1 [Compound 1, cyclopropanecarboxylic acid {5-[4-(1,1-dioxo-thiomorpholin-4-ylmethyl)-phenyl]-[1,2,4]triazolo[1,5-a]pyridin-2-yl}-amide]
- Creatinine Mean percentage CFB (100 mg q.d. (N = 70), 24 weeks results, week 8): 5.79%
- Creatinine Mean CFB [1]: 1.7 µmol/L
- Creatinine Mean percentage CFB [1]: 3.96%
- Creatinine Mean CFB [2]: 2.9 µmol/L
- Creatinine Mean percentage CFB [2]: 6.44%
- Creatinine Mean CFB [3]: 2.3 µmol/L
- Creatinine Mean percentage CFB [3]: 4.63%
- Creatinine Mean CFB [4]: 2.0 µmol/L
- Creatinine Mean percentage CFB [4]: 4.17%
- Creatinine Mean CFB (100 mg q.d. (N = 70), week 0): 0.00 µmol/L
- Creatinine Mean percentage CFB (100 mg q.d. (N = 70), week 0): 0.00%
- Creatinine Mean CFB (100 mg q.d. (N = 70), week 1): 1.19 µmol/L
- Creatinine Mean percentage CFB (100 mg q.d. (N = 70), week 1): 3.00%
- Creatinine Mean CFB (100 mg q.d. (N = 70), week 2): 1.48 µmol/L
- Creatinine Mean percentage CFB (100 mg q.d. (N = 70), week 2): 3.21%
- Creatinine Mean CFB (100 mg q.d. (N = 70), week 4): 1.10 µmol/L
- Creatinine Mean percentage CFB (100 mg q.d. (N = 70), week 4): 3.23%
- Creatinine Mean CFB (100 mg q.d. (N = 70), week 8): 3.19 µmol/L
- Creatinine Mean percentage CFB (100 mg q.d. (N = 70), week 8): 5.79%
- Creatinine Mean CFB (100 mg q.d. (N = 70), week 12): 1.75 µmol/L
- Creatinine Mean percentage CFB (100 mg q.d. (N = 70), week 12): 3.96%
- Creatinine Mean CFB [5]: 0.0 µmol/L
- Creatinine Mean percentage CFB [5]: 0.00%
- Creatinine Mean CFB [6]: 4.7 µmol/L
- Creatinine Mean percentage CFB [6]: 8.07%
- Creatinine Mean CFB [7]: 5.0 µmol/L
- Creatinine Mean percentage CFB [7]: 8.56%
- Creatinine Mean CFB [8]: 4.3 µmol/L
- Creatinine Mean percentage CFB [8]: 7.37%
- Creatinine Mean CFB [9]: 4.8 µmol/L
- Creatinine Mean percentage CFB [9]: 8.70%
- Creatinine Mean CFB [10]: 3.8 µmol/L
- Creatinine Mean percentage CFB [10]: 7.96%
- Creatinine Mean CFB [11]: 5.3 µmol/L
- Creatinine Mean percentage CFB [11]: 9.81%
- Creatinine Mean CFB [12]: 6.6 µmol/L
- Creatinine Mean percentage CFB [12]: 13.11%
- Creatinine Mean CFB [13]: 3.5 µmol/L
- Creatinine Mean percentage CFB [13]: 8.41%
- Creatinine Mean CFB (200 mg q.d. (N = 69), week 0): 0.00 µmol/L
- Creatinine Mean percentage CFB (200 mg q.d. (N = 69), week 0): 0.00%
- Creatinine Mean CFB (200 mg q.d. (N = 69), week 1): 4.68 µmol/L
- Creatinine Mean percentage CFB (200 mg q.d. (N = 69), week 1): 8.07%
- Creatinine Mean CFB (200 mg q.d. (N = 69), week 2): 4.99 µmol/L
- Creatinine Mean percentage CFB (200 mg q.d. (N = 69), week 2): 8.56%
- Creatinine Mean CFB (200 mg q.d. (N = 69), week 4): 4.28 µmol/L
- Creatinine Mean percentage CFB (200 mg q.d. (N = 69), week 4): 7.37%
- Creatinine Mean CFB (200 mg q.d. (N = 69), week 8): 4.82 µmol/L
- Creatinine Mean percentage CFB (200 mg q.d. (N = 69), week 8): 8.70%
- Creatinine Mean CFB (200 mg q.d. (N = 69), week 12): 3.80 µmol/L
- Creatinine Mean percentage CFB (200 mg q.d. (N = 69), week 12): 7.96%
- Creatinine Mean CFB [14]: 1.9 µmol/L
- Creatinine Mean percentage CFB [14]: 3.61%
- Creatinine Mean CFB [15]: 2.7 µmol/L
- Creatinine Mean percentage CFB [15]: 5.14%
- Creatinine Mean CFB [16]: 4.6 µmol/L
- Creatinine Mean percentage CFB [16]: 8.41%
